Laboratory results: article PMC4774911, “Biochemical Screening of Five Protein Kinases from Plasmodium falciparum against 14,000 Cell-Active Compounds” (PLoS ONE, 2016)
pKd: −log10 of the molar value. Where “and” joins values, the source holds several entries; their conditions need not be identical. Identical values can stand only once.

Legend:
Assay in all cases: biochemical
Design in all cases: endogenous in cells; host or cells: K562 cell extract; species or system K562 (extract); replicate k of n = 2 (each experiment ID is one independent experiment; two experiment IDs per compound)
Settings in all cases: read-out: KDapp
IRAK1 = IRAK1 (Homo sapiens, UniProt P51617)
Sequence of IRAK1 (P51617 whole entry): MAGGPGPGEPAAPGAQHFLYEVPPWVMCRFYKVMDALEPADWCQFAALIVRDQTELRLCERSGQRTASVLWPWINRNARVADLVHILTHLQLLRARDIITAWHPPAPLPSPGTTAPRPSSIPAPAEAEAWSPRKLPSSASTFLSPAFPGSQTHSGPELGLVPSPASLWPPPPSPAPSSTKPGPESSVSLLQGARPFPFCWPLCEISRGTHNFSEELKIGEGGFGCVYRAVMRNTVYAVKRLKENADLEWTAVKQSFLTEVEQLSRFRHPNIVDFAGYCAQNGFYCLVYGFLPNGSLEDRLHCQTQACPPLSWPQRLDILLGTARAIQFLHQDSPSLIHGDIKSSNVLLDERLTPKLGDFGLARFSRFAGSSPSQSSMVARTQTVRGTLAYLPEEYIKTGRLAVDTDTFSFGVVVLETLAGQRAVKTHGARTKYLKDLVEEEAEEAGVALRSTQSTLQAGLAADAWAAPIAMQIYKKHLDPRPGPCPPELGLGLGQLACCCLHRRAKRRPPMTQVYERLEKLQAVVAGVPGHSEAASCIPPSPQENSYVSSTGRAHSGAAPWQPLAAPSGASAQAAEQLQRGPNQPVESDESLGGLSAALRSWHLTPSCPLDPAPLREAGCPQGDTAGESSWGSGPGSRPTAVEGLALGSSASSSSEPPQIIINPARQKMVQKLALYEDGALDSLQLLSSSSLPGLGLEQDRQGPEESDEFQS

NEK3 = target: T1, NEK3 (Homo sapiens, UniProt P51956)
T1 sequence (P51956 1-506): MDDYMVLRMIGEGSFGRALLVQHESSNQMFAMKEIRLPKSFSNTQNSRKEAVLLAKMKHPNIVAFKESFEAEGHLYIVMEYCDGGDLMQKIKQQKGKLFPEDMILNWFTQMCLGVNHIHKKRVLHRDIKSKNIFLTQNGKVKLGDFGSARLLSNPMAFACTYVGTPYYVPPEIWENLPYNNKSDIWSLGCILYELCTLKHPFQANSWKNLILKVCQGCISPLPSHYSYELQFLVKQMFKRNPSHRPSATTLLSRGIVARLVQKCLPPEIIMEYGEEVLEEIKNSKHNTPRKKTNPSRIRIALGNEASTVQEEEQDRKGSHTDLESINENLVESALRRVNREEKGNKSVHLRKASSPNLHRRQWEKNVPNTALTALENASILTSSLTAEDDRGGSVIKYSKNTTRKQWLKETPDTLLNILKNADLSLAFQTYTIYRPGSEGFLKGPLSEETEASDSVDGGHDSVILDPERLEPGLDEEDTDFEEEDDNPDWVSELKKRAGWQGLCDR

ULK1 = target: T2, ULK1 (Homo sapiens, UniProt O75385)
T2 sequence (O75385 1-1050): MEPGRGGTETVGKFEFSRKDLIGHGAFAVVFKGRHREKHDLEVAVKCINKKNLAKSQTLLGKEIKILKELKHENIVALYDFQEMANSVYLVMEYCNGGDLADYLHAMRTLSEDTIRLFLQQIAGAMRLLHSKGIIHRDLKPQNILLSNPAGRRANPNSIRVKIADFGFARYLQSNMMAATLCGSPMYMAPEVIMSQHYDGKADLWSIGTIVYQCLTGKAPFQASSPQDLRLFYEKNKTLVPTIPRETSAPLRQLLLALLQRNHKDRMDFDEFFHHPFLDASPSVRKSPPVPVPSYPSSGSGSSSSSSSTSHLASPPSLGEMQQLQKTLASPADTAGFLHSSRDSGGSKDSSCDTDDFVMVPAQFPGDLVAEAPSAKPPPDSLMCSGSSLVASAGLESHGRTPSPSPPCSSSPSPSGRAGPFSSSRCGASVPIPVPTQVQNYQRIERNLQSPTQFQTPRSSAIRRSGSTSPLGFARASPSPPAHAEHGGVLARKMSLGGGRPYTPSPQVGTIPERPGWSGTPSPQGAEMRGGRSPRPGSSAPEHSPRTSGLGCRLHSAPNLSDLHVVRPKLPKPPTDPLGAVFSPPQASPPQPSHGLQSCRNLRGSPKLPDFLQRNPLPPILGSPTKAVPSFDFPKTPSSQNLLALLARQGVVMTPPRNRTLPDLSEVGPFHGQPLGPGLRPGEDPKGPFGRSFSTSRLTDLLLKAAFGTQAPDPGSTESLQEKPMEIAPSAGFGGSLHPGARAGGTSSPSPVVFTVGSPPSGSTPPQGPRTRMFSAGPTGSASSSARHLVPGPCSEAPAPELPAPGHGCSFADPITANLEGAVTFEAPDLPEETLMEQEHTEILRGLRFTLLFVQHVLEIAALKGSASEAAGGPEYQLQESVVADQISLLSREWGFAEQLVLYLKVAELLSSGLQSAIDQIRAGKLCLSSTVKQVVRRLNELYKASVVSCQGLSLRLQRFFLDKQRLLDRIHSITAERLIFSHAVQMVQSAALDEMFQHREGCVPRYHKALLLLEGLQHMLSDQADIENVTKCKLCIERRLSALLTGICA

AXL = target: T3, AXL (Homo sapiens, UniProt P30530)
T3 sequence (P30530 1-894): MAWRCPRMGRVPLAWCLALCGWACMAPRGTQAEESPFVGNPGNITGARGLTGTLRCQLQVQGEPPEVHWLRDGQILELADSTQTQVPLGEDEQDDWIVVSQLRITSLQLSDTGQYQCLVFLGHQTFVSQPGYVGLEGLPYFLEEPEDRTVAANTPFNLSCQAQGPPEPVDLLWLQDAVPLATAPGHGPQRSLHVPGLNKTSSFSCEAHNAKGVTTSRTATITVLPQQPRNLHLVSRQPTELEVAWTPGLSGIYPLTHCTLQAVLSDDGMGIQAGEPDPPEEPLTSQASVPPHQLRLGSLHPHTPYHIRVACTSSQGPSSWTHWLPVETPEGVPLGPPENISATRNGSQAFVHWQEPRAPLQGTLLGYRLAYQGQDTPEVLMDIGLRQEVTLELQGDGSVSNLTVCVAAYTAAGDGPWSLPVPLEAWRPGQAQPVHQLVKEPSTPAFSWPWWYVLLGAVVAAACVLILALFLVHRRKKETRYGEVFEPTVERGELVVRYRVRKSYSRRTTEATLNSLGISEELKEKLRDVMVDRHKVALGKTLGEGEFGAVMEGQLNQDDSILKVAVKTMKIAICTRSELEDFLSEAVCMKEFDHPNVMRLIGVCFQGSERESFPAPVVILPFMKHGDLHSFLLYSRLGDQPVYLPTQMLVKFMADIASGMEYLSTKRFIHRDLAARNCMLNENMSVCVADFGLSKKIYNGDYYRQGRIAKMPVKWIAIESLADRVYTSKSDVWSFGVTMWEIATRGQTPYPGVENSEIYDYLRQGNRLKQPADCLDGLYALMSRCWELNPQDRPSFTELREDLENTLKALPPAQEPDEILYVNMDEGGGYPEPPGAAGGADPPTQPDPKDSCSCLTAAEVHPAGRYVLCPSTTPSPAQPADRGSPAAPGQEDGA

MAPK6 = MAPK6 (Homo sapiens, UniProt Q16659)
Sequence of MAPK6 (Q16659 whole entry): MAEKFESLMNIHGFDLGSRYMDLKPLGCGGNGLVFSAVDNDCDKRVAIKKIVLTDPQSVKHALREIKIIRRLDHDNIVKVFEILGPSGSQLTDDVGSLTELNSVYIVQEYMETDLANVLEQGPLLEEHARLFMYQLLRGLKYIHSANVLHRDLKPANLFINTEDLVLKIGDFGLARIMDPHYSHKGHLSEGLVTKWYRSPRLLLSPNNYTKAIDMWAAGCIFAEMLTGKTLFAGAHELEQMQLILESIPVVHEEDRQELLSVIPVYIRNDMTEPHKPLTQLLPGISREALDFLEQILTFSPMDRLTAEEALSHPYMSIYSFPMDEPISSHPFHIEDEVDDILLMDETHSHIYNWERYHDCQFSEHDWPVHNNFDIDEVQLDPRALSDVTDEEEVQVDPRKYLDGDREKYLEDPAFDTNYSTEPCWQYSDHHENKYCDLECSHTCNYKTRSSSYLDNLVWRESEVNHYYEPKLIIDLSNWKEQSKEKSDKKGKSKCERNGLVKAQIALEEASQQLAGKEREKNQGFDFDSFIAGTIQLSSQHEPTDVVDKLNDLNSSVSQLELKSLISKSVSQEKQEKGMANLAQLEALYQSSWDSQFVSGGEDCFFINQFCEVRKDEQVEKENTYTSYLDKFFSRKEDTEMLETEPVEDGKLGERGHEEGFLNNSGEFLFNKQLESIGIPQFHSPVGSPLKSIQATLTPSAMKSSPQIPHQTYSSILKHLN

SMILES | pKd (IRAK1) | pKd (NEK3) | pKd (ULK1) | pKd (AXL) | pKd (MAPK6)
CN1CCN(c2ccc(Nc3ncc(C#N)c(Nc4ccccc4C(N)=O)n3)cc2)CC1.Cl [TCMDC-134116] | 7.03 and 7.09 | 6.14 | 7.02 | 6.58 and 6.53 | 
CN(C)CC(O)COc1ccc(Nc2ncc([N+](=O)[O-])c(Nc3ccccc3O)n2)cc1.O=C(O)C(F)(F)F (centres unmarked) [TCMDC-141399] |  |  |  |  | 6.61
